Test results published in publication PMC8968952, “Modulation of ERCC1-XPF Heterodimerization Inhibition via Structural Modification of Small Molecule Inhibitor Side-Chains” (Frontiers in Oncology, 2022).

Tests used:
CYP3A4-M = CYP3A4-M (Homo sapiens, UniProt P08684); test: Cytochrome P450 inhibition, CYP3A4-M; format: in vitro ADME
Experimental: (§1) The ADME (absorption, distribution, metabolism, and excretion) profile of our lead compound 6 was determined by standard protocols carried out by WuXi AppTec (Shanghai) Co (https://www.wuxiapptec.com/). The following tests were conducted: distribution coefficient (log D at pH 7.4), aqueous solubility (Kinetic), metabolic stability in human liver microsomes and cryopreserved human hepatocytes, bidirectional permeability in Caco-2 cells, serum protein binding, and cytochrome P450 (CYP) inhibition (CYP1A2, CYP2C9, CYP2C19, CYP2D6, and CYP3A4-M).

CYP2C9 = CYP2C9 (Homo sapiens, UniProt P11712); test: Cytochrome P450 inhibition, CYP2C9; format: in vitro ADME
Experimental: as §1

HCT-116 cells [1] = test: Clonogenic survival assay, ionizing radiation; format: cell-based, human; conditions: 0.5 and 1 μM, 0 to 8 Gy γ-radiation
Experimental: The effectiveness of compound 6 for sensitization of cells to ionizing radiation was also assessed using the clonogenic survival assay. Briefly, 200-3000 of HCT-116 cells (depending on the radiation dose) were seeded and after 24 hours the cells were pretreated with 0.5 or 1 µM of compound 6 in DMSO for 4 hours followed by exposure to increasing doses of γ-radiation (^60Co Gammacell; Atomic Energy of Canada Limited, Ottawa) from 0 to 8 Gy (at a dose rate of 0.8 Gy/min) and kept for an additional 24 hours in inhibitor-containing medium. The medium was then replaced with fresh medium without the compound, and the plates were incubated at 37°C for 9 more days before staining and determining the number of colonies. Data were plotted using GraphPad Prism version 5.04 software.

HCT-116 cells [2] = test: Clonogenic survival assay, UV treatment; format: cell-based, human
Experimental: HCT-116 cells (100–800 cells depending on the UV dose) were plated in triplicate in 60-mm Petri dishes in DMEM/F12 medium. Following overnight attachment of the cells in a humidified atmosphere containing 5% CO2 at 37°C, the cells were treated with 0.5 μM compound 6 or 10 in DMSO (as described in section 2.7) for 4 h before the medium was removed, and the cells exposed to increasing doses (0–10 J/m^2) of UV-C radiation. The cells were then cultured for a further 24 h in the presence of inhibitor and then for an additional 9 days in the absence of inhibitor to allow for colony formation. Colonies were stained with crystal violet and counted using a Colcount instrument (Oxford Optronix, Abingdon UK) to facilitate determination of plating efficiency and surviving fraction. Data were plotted using GraphPad Prism version 5.04 software.

CYP2D6 = CYP2D6 (Homo sapiens, UniProt P10635); test: Cytochrome P450 inhibition, CYP2D6; format: in vitro ADME
Experimental: as §1

[3] = Distribution coefficient (log D at pH 7.4); format: physicochemical
Experimental: as §1

CYP2C19 = CYP2C19 (Homo sapiens, UniProt P33261); test: Cytochrome P450 inhibition, CYP2C19; format: in vitro ADME
Experimental: as §1

[4] = system: ERCC1 or XPF levels in A549 cells; test: Western blot of ERCC1 and XPF protein levels (PLA control); format: cell-based, human; conditions: 2 µM, 24 h
Experimental: page 1: Supplementary Material […] Supplementary Figure 1. ERCC1-XPF mediated cleavage of the stem-loop DNA substrate, in which the FAM signal is quenched, releases the fluorescently tagged octanucleotide. Triplicate measurements of the control (DMSO) and the effect of 10 μM of compounds 4 and 6 on the incision activity is shown. 2 PLA Control Experiments Supplementary Figure 2. A549 cells were seeded in 6-well culture dishes (Thermo Fishes Scientific) at a density of 0.3 X 10^6 cells/well in a final volume of 3 ml. […] The chambers were incubated for 24 h and then washed with PBS and the cells were solubilized with RIPA buffer in the presence of protease inhibitor cocktail (Cell Signaling Technology) plus 2 mM EDTA. […] EpiGentek), XPF (LS- C173159, 1:1000; LifeSpan BioSciences, Seattle, WA) and B-Actin (sc-47778, 1:1000; Santa Cruz) primary antibodies followed by secondary anti-mouse or anti-rabbit secondary HRP-conjugated secondary antibodies. ECL chemiluminescent substrate (Promega) was used to detect the proteins. 3 Cytotoxicity Analysis Supplementary Figure 3. Cytotoxicity assay using colony forming assay 4 HCT-116 Derived XPF Knockout Cells For CRISPR deletion of XPF from HCT-116 cells, the pSpCas9(BB)-2A-GFP (pX458) vector (Addgene plasmid # 48138) was used. The short guide sequence to target XPF exon one was: 5'- [NT] 3' and target XPF exon eight was: 5'- [NT]3'. […]

Sequence of CYP2C9 (P11712 whole entry): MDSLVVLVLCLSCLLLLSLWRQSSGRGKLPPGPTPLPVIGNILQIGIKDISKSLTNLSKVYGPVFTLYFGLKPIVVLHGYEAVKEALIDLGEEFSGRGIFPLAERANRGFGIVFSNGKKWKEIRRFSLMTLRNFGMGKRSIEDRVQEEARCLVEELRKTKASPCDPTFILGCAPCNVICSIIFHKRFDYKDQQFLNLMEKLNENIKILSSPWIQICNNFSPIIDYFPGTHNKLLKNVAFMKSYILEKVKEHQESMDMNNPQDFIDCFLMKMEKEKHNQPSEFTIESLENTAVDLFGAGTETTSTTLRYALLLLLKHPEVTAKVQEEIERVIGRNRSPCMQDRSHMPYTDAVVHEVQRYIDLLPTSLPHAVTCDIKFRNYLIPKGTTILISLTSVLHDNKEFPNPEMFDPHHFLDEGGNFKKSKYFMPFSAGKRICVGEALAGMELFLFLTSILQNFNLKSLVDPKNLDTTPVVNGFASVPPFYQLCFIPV
Sequence of CYP2D6 (P10635 whole entry): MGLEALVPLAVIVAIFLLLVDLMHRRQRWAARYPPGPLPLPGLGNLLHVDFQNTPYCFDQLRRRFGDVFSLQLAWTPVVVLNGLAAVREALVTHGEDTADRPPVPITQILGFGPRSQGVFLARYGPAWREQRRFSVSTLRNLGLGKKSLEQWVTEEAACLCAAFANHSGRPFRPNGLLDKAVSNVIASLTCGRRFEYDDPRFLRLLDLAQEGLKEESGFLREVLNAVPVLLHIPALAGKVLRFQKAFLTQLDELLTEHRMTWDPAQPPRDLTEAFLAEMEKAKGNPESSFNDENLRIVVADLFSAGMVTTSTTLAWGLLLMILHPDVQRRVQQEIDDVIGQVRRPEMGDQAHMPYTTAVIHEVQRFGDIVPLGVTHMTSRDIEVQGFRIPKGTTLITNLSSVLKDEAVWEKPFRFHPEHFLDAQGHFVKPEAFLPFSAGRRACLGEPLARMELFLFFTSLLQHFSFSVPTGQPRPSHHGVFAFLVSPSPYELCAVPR
Sequence of CYP2C19 (P33261 whole entry): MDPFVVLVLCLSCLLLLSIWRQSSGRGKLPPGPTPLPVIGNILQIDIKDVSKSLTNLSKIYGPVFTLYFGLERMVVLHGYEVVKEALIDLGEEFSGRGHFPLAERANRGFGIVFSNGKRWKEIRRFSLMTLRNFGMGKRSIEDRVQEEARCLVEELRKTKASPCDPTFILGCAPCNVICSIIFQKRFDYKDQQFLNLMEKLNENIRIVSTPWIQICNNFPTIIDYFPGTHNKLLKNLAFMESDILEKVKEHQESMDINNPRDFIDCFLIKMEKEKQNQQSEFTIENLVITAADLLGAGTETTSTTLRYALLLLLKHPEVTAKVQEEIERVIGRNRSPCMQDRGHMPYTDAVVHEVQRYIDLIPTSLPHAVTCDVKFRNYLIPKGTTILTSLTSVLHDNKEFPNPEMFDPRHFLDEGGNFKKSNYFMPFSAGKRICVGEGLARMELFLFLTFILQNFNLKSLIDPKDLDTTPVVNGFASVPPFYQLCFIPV
Sequence of CYP3A4-M (P08684 whole entry): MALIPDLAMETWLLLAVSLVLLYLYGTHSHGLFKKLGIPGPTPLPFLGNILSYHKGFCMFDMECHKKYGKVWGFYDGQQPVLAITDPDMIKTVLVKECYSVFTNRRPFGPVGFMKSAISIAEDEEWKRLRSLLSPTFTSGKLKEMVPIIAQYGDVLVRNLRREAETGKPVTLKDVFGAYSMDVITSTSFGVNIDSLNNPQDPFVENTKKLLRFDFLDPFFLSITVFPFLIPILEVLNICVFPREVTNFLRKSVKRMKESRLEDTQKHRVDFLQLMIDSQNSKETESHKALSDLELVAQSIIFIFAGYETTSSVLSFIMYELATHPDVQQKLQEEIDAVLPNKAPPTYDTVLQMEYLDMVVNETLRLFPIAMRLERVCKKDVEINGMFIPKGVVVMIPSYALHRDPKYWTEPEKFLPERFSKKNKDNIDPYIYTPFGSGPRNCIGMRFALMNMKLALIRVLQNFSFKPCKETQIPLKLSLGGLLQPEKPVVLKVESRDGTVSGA

CYP3A4-M inhibition grade (in words) (CYP3A4-M): moderate inhibitor
IC50 (CYP3A4-M): 1.9 µM
CYP2C9 inhibition grade (in words) (CYP2C9): weak inhibitor
IC50 (CYP2C9): 33.4 µM
CYP2D6 inhibition grade (in words) (CYP2D6): moderate inhibitor
IC50 (CYP2D6): 2.92 µM
logD [3]: 3.95
CYP2C19 inhibition grade (in words) (CYP2C19): weak inhibitor
IC50 (CYP2C19): 10.8 µM
SMILES: COc1ccc2nc3cc(Cl)ccc3c(Nc3ccc(O)c(CN4CCN(CCN(C(C)C)C(C)C)CC4)c3)c2c1 [Compound 6]
sensitization to ionizing radiation (in words) (HCT-116 cells [1]): sensitized HCT-116 cells in a dose-dependent manner
sensitization to UVC radiation (in words) (HCT-116 cells [2]; 0.5 μM): sensitized cells to UVC radiation
cell survival after UVC (HCT-116 cells [2]; 0.5 μM compound, 4 J/m^2 UVC): < 50%
levels of ERCC1 or XPF vs untreated cells [4]: no significant differences
